Source: US20250152591A1, “TREATMENT OF HEMATOLOGICAL MALIGNANCIES WITH MENIN INHIBITORS AND P-GLYCOPROTEIN INHIBITORS” (Kura Oncology, Inc., priority 2022, published 2025)
Like-named read-outs stand apart in the source and are kept apart here.

What was measured:
[1] = target: P-gp (Homo sapiens, UniProt P08183); test: P-gp substrate assessment using MDR1-MDCK monolayers (Example 1, +/- valspodar); assay type: in vitro ADME; parameters: expressed in transfected cells; host or cells: MDR1-MDCK cells
Method: MDR1-MDCK cell monolayers were grown to confluence on collagen-coated, microporous membranes in 12-well assay plates. Details of the plates and their certification are shown below. The permeability assay buffer was Hanks' balanced salt solution (HBSS) containing 10 mM HEPES and 15 mM glucose at a pH of 7.4. The buffer in the receiver chamber also contained 1% bovine serum albumin. The dosing solution concentration was 5 μM of test article in the assay buffer+/−1 μM valspodar. Cells were first pre-incubated for 30 min with HBSS containing+/−1 μM valspodar. Cell monolayers were dosed on the apical side (A-to-B) or basolateral side (B-to-A) and incubated at 37° C. with 5% CO2 in a humidified incubator. Samples were taken from the donor and receiver chambers at 120 min. Each determination was performed in duplicate. The flux of lucifer yellow was also measured post-experimentally for each monolayer to ensure no damage was inflicted to the cell monolayers during the flux period. All samples were assayed by LC-MS/MS using electrospray ionization. Liquid chromatography conditions are summarized as follows: Column: Thermo BDS Hypersil C18 30×2.1 mm, […], with guard column; M.P. Buffer: 25 mM ammonium formate buffer, pH 3.5; Aqueous Reservoir (A): 90% water, 10% buffer; Organic Reservoir (B): 90% acetonitrile, 10% buffer; Flow Rate: 350 μL/minute; Total run time: 3.5 min; Autosampler: 10 μL injection volume; Autosampler wash: water/methanol/2-propanol: 1/1/1; with 0.2% formic acid.
The apparent permeability (Papp) and percent recovery were calculated as follows: […]
where, • dCr/dt is the slope of the cumulative concentration in the receiver compartment versus time in μM s^−1; • Vr is the volume of the receiver compartment in cm^3; • Vd is the volume of the donor compartment in cm^3; • A is the area of the insert (1.13 cm^2 for 12-well); • CA is the average of the nominal dosing concentration and the measured 120 minute donor concentration in μM; • CN is the nominal concentration of the dosing solution in μM; • Cr^final is the cumulative receiver concentration in μM at the end of the incubation period; • Cd^final is the concentration of the donor in μM at the end of the incubation period.
Efflux ratio (ER) is defined as Papp (B-to-A)/Papp (A-to-B).
• ER≥2.0 without valspodar, and reduced by ≥50% with valspodar: Positive • ER≥2.0 without valspodar, and reduced by <50% with valspodar: Negative • ER<2.0 without and with valspodar: Negative

[2] = tested on: MOLM13-Control cell line; test: Cell viability assay, MOLM13-Control; assay type: cell-based; parameters: unit of the concentration uncertain; conditions: 168 h, 7 days
Method: The effects described above were investigated in an AML cell line, MOLM-13, which carries a KA4T2A (MLL)-rearrangement mutation. The P-gp expressing MOLM-13 cell line (MOLM13-PGP) and the Luciferase expressing MOLM-13 cell line (MOLM13-Control) were established by lentivirally transducing P-gp ORF or Luciferase ORF. Cells were plated and treated with test compound for 7 days.

[3] = tested on: OCI-AML3-PGP cell line; test: Cell viability assay, OCI-AML3-PGP; assay type: cell-based; parameters: unit of the concentration uncertain; conditions: 168 h, 7 days
Method: A third set of experiments was conducted in the cell line OCI-AML3, which carries the W288Cfs*12 mutation in NPM protein. The P-gp expressing OCI-AML3 cell line (OCI-AML3-PGP) and the Luciferase expressing OC-AML3 cell line (OCI-AML3-Control) were established by lentivirally transducing P-gp ORF or Luciferase ORF. Cells were treated with Compound I or SNDX-5613 for 7 days to assess the IC50 values.

[4] = tested on: MV4;11 parental cell line; test: CellTiter-Glo cell viability assay, MV4;11 parental; assay type: cell-based; conditions: Homo sapiens, MV4-11, 144 h; Compound I only, 0 to 1000 nM, 6 days, Table 3
Method: The influence of efflux pumps on the antitumor activity of the test compounds at steady state (more clinically relevant) were evaluated using P-gp-transfected AML cells (MV4;11 cells) in 6-day viability assays.
A P-gp-expressing KMT2A(MLL)-rearranged cell line model was developed by lentiviral transduction of the MV4;11 parental cell line and then selection for either Luciferase ORF (MV4;11-Control) or P-gp ORF (MV4;11-PGP).
The MV4;11 parental, MV4;11-Control, and MV4;11-PGP cells were seeded on a 96-well plate and the cell lines were treated with Compound I at doses ranging from 0 to 1000 nM for 6 days. Cell viability was measured by CellTiter-Glo® Luminescent Cell Viability Assay (CTG assay, Promega Corp.) and % Viability was quantified by normalizing to the luminescence values of DMSO-only treated cells. The dose-response curves and IC50's were calculated using GraphPad Prism 9.4.1.

Sequence of P-gp (P08183 whole entry): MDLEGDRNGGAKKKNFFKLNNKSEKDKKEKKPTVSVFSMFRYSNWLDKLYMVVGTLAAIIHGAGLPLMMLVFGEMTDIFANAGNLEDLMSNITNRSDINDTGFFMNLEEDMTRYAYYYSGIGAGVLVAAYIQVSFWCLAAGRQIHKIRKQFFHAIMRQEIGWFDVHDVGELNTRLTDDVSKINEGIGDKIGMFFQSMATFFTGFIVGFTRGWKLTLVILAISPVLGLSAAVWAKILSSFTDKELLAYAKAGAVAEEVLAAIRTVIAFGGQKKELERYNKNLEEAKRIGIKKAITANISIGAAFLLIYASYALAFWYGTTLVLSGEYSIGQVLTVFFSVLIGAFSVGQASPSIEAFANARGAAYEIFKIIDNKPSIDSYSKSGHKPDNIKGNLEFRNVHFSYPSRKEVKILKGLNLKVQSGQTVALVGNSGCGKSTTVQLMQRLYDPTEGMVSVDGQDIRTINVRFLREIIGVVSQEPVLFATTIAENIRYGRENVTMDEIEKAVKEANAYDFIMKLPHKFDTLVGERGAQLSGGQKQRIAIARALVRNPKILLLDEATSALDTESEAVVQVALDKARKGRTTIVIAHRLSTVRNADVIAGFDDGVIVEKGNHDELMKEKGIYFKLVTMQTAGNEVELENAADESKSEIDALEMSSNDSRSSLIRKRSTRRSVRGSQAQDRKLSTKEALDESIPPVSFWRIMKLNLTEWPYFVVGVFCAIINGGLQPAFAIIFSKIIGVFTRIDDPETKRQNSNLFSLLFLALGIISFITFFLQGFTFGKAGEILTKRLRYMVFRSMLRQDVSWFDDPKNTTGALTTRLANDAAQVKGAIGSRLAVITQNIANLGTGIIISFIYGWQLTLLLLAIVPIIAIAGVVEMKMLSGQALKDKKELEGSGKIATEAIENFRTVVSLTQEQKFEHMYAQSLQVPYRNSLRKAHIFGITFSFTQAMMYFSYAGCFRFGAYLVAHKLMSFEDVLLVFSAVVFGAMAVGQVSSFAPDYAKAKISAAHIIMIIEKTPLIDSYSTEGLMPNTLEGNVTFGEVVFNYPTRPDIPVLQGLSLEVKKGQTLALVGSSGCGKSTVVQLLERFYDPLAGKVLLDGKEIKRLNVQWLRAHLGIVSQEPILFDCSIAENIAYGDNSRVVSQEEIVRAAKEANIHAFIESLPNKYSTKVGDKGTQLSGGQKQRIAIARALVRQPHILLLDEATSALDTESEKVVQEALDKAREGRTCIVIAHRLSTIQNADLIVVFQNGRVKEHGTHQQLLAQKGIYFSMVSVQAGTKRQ

**Q.** With `CNc1nc(NC2CCN(Cc3ccc4c(cc(C#N)n4C[C@H](C)N4CCN(S(C)(=O)=O)CC4)c3C)CC2)c2cc(CC(F)(F)F)sc2n1` [Compound I] as the molecule, how does the “Papp Avg” value ([1]; A-to-B, without valspodar) read?
**A.** Its value is 0.09 10^−6 cm/s.

**Q.** What about the “P-gp substrate” value ([1]; MDR1-MDCK cell monolayers) of the same molecule?
**A.** Its value is “substrate of P-gp”.

**Q.** And the “P-gp Substrate Classification” value ([1]; MDR1-MDCK, ER without and with valspodar)?
**A.** Its value is “Positive (ER≥2.0 without valspodar, and reduced by ≥50% with valspodar)”.

**Q.** And the recovery at 120 min, 5 μM ([1]; dog, MDCK-MDR1, pH 7.4, A-to-B, 5 μM test article, without valspodar)?
**A.** Its recovery at 120 min, 5 μM is 70%.

**Q.** And the recovery at 120 min, 5 μM ([1]; dog, MDCK-MDR1, pH 7.4, B-to-A, 5 μM test article, without valspodar)?
**A.** The recovery at 120 min, 5 μM was 83%.

**Q.** And the Papp B→A at 120 min, 5 μM ([1]; dog, MDCK-MDR1, pH 7.4, B-to-A, without valspodar, read-out: Papp Avg)?
**A.** Its Papp B→A at 120 min, 5 μM is 9.41 ×10⁻⁶ cm/s.

**Q.** What about the Papp B→A at 120 min, 5 μM ([1]; dog, MDCK-MDR1, pH 7.4, B-to-A, without valspodar, read-out: Papp R1) of the same molecule?
**A.** Its Papp B→A at 120 min, 5 μM is 6.43 ×10⁻⁶ cm/s.

**Q.** And the Papp B→A at 120 min, 5 μM ([1]; dog, MDCK-MDR1, pH 7.4, B-to-A, without valspodar, read-out: Papp R2)?
**A.** The Papp B→A at 120 min, 5 μM was 9.21 ×10⁻⁶ cm/s.

**Q.** And the Papp B→A at 120 min, 5 μM ([1]; dog, MDCK-MDR1, pH 7.4, B-to-A, without valspodar, read-out: Papp R3)?
**A.** Its Papp B→A at 120 min, 5 μM is 12.6 ×10⁻⁶ cm/s.

**Q.** What about the recovery at 120 min, 5 μM ([1]; dog, MDCK-MDR1, pH 7.4, with valspodar 1 μM, A-to-B, 5 μM test article + 1 μM valspodar) of the same molecule?
**A.** Its recovery at 120 min, 5 μM is 53%.

**Q.** And the recovery at 120 min, 5 μM ([1]; dog, MDCK-MDR1, pH 7.4, with valspodar 1 μM, B-to-A, 5 μM test article + 1 μM valspodar)?
**A.** The recovery at 120 min, 5 μM was 118%.

**Q.** And the Papp A→B at 120 min, 5 μM ([1]; dog, MDCK-MDR1, pH 7.4, A-to-B, without valspodar)?
**A.** The Papp A→B at 120 min, 5 μM was 0.09 ×10⁻⁶ cm/s.

**Q.** And the efflux ratio at 120 min, 5 μM ([1]; dog, MDCK-MDR1, pH 7.4, Papp (B-to-A)/Papp (A-to-B), without valspodar)?
**A.** Its efflux ratio at 120 min, 5 μM is 105.

**Q.** And the IC50 ([2]; Table 7, read-out: IC50 MOLM13-Control (Compound + DMSO))?
**A.** The IC50 was 23.7 nM.

**Q.** What about the IC50 ([2]; Table 8, read-out: IC50 MOLM13-Control (compound + DMSO)) of the same molecule?
**A.** Its IC50 is 27 nM.

**Q.** What about the IC50 ([2]; posaconazole (1.5 (unit uncertain)), Table 7, read-out: IC50 MOLM13-Control (Compound + posaconazole)) of the same molecule?
**A.** The IC50 was 16.5 nM.

**Q.** And the IC50 ([2]; valspodar (1 (unit uncertain)), Table 8, read-out: IC50 MOLM13-Control (Compound + valspodar))?
**A.** The IC50 was 22.3 nM.

**Q.** What about the IC50 ([3]; Table 9, read-out: IC50 OCI-AML3-PGP (Compound + DMSO)) of the same molecule?
**A.** The IC50 was 38.9 nM.

**Q.** And the IC50 ([3]; Table 10, read-out: IC50 OCI-AML3-PGP (Compound + DMSO))?
**A.** Its IC50 is 50.2 nM.

**Q.** And the IC50 ([3]; posaconazole (0.75 (unit uncertain)), Table 9, read-out: IC50 OCI-AML3-PGP (Compound + posaconazole))?
**A.** Its IC50 is 19.2 nM.

**Q.** What about the IC50 ([3]; valspodar (1 (unit uncertain)), Table 10, read-out: IC50 OCI-AML3-PGP (Compound + valspodar)) of the same molecule?
**A.** The IC50 was 15.7 nM.

**Q.** What about the IC50 [4] of the same molecule?
**A.** Its IC50 is 8.5 nM.
